# Source: patent publication US20250011307A1, “CRYSTALLINE FORMS OF BIARYL YAP/TAZ-TEAD PROTEIN-PROTEIN INTERACTION INHIBITORS” (Novartis AG, priority 2021, published 2025)
# Where a name gives a salt, the structure may show the parent alone.
# How the values were obtained:
# Type in all cases: physicochemical
# [1] = Xenon light stress test of bulk (HPLC degradation products, color, XRPD); design: key to CL color: A: No change; B: Slight discoloration; C: Medium discoloration; D: Strong discoloration; settings: Compound B forms, Xenon light (1200 kLuxh, 25° C.)
# Protocol: (§1) X-ray powder diffraction (XRPD) patterns were obtained using a Bruker Advance D8 in reflection geometry. Powders were analyzed using a zero background Si flat sample holder. The radiation used was Cu Kα (A=1.5418 Å). Patterns were measured between 2° and 40° 2theta. • Sample amount: 5-10 mg • Sample holder: zero background Si flat sample holder
# as §1, with “radiation” for “radiation used”, “(λ=1.5418” for “(A=1.5418”
# [2] = Solubility after equilibration at 25° C. for 24 h, with final pH and XRPD of solid residues; settings: Compound B forms
# [3] = Solid state bulk stability stress test (HPLC degradation products, color, XRPD); design: key to CL color: A: No change; B: Slight discoloration; C: Medium discoloration; D: Strong discoloration; settings: Compound B forms
# [4] = Hygroscopicity (loss on drying by TGA and XRPD, as is and after storage at 92% / 80% RH); settings: Compound B forms
# [5] = Excipient compatibility stress test (HPLC degradation products, color); design: key to CL color: A: No change; B: Slight discoloration; C: Medium discoloration; D: Strong discoloration; settings: Compound B forms
# [6] = Blank FaSSIF, target concentration 2 mg/mL
# [7] = FaSSIF V2 pH 6.5, target concentration 2 mg/mL
# [8] = FeSSIF V2 pH 5.8, target concentration 2 mg/mL
# [9] = SGF pH 2.0, target concentration 2 mg/mL
# [10] = Water, target concentration 2 mg/mL
# [11] = pH 1.2, 100 mM HCl, target concentration 2 mg/mL
# [12] = pH 3.0, 50 mM citrate buffer, target concentration 2 mg/mL
# [13] = pH 4.7, 50 mM acetate buffer, target concentration 2 mg/mL
# [14] = pH 6.8, 50 mM phosphate buffer with 50 mM Na taurocholate
# [15] = pH 6.8, 50 mM phosphate buffer with 50 mM Na taurocholate, target concentration 2 mg/mL
# [16] = pH 6.8, 50 mM phosphate buffer, target concentration 2 mg/mL
# [17] = After 1 day at 92% RH, TGA temperature per cell: free form @233° C., succinate @205° C., L-malate @200° C., L-lactate @200° C.
# [18] = Hygroscopicity, As is, TGA temperature per cell: free form @233° C., succinate @205° C., L-malate @200° C., L-lactate @200° C.
# [19] = 2 weeks 50° C./75% RH, 1% in HGC powder
# [20] = 2 weeks 50° C./75% RH, 1% in HPMC powder
# [21] = 2 weeks 50° C./closed, 1% in HGC powder
# [22] = 2 weeks 50° C./closed, 1% in HPMC powder
structure (smiles),measurement,setting,value
"CNC[C@]1(c2ccccc2)Oc2cc(F)c(Cl)c(-c3c(C(N)=O)ccc(OC)c3F)c2[C@@H]1C [Compound B Free form, amorphous, 2-((2S,3S,4S)-5-Chloro-6-fluoro-3-methyl-2-((methylamino)methyl)-2-phenyl-2,3-dihydrobenzofuran-4-yl)-3-fluoro-4-methoxybenzamide]",Bulk amber vial (XRPD),[1]; amber vial,No change
same,CL color,[1]; amber vial,A
same,"DP[%] degradation products, Bulk amber vial (HPLC)",[1]; amber vial,0.19%
same,Bulk clear quartz vial (XRPD),[1]; clear quartz vial,No change
same,CL color,[1]; clear quartz vial,C
same,"DP[%] degradation products, Bulk clear quartz vial (HPLC)",[1]; clear quartz vial,2.74%
same,final pH,[2]; Blank FaSSIF,[7.36]
same,Sol. (solubility),[2]; [6],1.49 mg/mL
same,final pH,[2]; FaSSIF V2 pH 6.5,[7.19]
same,Sol. (solubility),[2]; [7],1.15 mg/mL
same,final pH,[2]; FeSSIF V2 pH 5.8,[6.01]
same,Sol. (solubility),[2]; [8],>2 mg/mL
same,final pH,[2]; SGF pH 2.0,[2.22]
same,Sol. (solubility),[2]; [9],>2 mg/mL
same,final pH,[2]; Water,[8.78]
same,Sol. (solubility),[2]; [10],0.07 mg/mL
same,final pH,"[2]; pH 1.2, 100 mM HCl",[1.16]
same,Sol. (solubility),[2]; [11],>2 mg/mL
same,final pH,"[2]; pH 3.0, 50 mM citrate buffer",[3.08]
same,Sol. (solubility),[2]; [12],>2 mg/mL
same,final pH,"[2]; pH 4.7, 50 mM acetate buffer",[4.84]
same,Sol. (solubility),[2]; [13],>2 mg/mL
same,final pH,"[2]; pH 6.8, 50 mM phosphate buffer",[6.90]
same,final pH,[2]; [14],[6.72]
same,Sol. (solubility),[2]; [15],>2 mg/mL
same,Sol. (solubility),[2]; [16],>2 mg/mL
same,Bulk (XRPD),[3]; 2 weeks 50° C./75% RH,gel-like
same,CL color,[3]; 2 weeks 50° C./75% RH,A
same,"DP[%] degradation products, Bulk (HPLC)",[3]; 2 weeks 50° C./75% RH,4.84%
same,Bulk (XRPD),[3]; 2 weeks 80° C./11% RH,gel-like
same,CL color,[3]; 2 weeks 80° C./11% RH,C
same,"DP[%] degradation products, Bulk (HPLC)",[3]; 2 weeks 80° C./11% RH,13.00%
same,Bulk (XRPD),[3]; 2 weeks 80° C./75% RH,gel-like
same,CL color,[3]; 2 weeks 80° C./75% RH,C
same,"DP[%] degradation products, Bulk (HPLC)",[3]; 2 weeks 80° C./75% RH,14.88%
same,Loss on drying by TGA,[4]; [17],2.14%@233 °C
same,Loss on drying by TGA,[4]; [18],1.30%@233 °C
same,CL color,[5]; [19],A
same,DP[%] degradation products,[5]; [19],2.50%
same,CL color,[5]; [20],A
same,DP[%] degradation products,[5]; [20],4.33%
same,CL color,[5]; [21],A
same,DP[%] degradation products,[5]; [21],1.87%
same,CL color,[5]; [22],A
same,DP[%] degradation products,[5]; [22],2.02%
"CNC[C@]1(c2ccccc2)Oc2cc(F)c(Cl)c(-c3c(C(N)=O)ccc(OC)c3F)c2[C@@H]1C [Compound B L-lactate salt, 2-((2S,3S,4S)-5-Chloro-6-fluoro-3-methyl-2-((methylamino)methyl)-2-phenyl-2,3-dihydrobenzofuran-4-yl)-3-fluoro-4-methoxybenzamide]",Bulk amber vial (XRPD),[1]; amber vial,No change
same,CL color,[1]; amber vial,A
same,"DP[%] degradation products, Bulk amber vial (HPLC)",[1]; amber vial,0.17%
same,Bulk clear quartz vial (XRPD),[1]; clear quartz vial,No change
same,CL color,[1]; clear quartz vial,B
same,"DP[%] degradation products, Bulk clear quartz vial (HPLC)",[1]; clear quartz vial,0.38%
same,final pH,[2]; Blank FaSSIF,[6.53]
same,final pH,[2]; FaSSIF V2 pH 6.5,[6.48]
same,final pH,[2]; FeSSIF V2 pH 5.8,[5.79]
same,final pH,[2]; SGF pH 2.0,[2.24]
same,final pH,[2]; Water,[7.03]
same,final pH,"[2]; pH 1.2, 100 mM HCl",[1.12]
same,final pH,"[2]; pH 3.0, 50 mM citrate buffer",[3.06]
same,final pH,"[2]; pH 4.7, 50 mM acetate buffer",[4.70]
same,final pH,"[2]; pH 6.8, 50 mM phosphate buffer",[6.79]
same,final pH,[2]; [14],[6.58]
same,Bulk (XRPD),[3]; 2 weeks 50° C./75% RH,No change
same,CL color,[3]; 2 weeks 50° C./75% RH,A
same,"DP[%] degradation products, Bulk (HPLC)",[3]; 2 weeks 50° C./75% RH,0.33%
same,Bulk (XRPD),[3]; 2 weeks 80° C./11% RH,No change
same,CL color,[3]; 2 weeks 80° C./11% RH,A
same,"DP[%] degradation products, Bulk (HPLC)",[3]; 2 weeks 80° C./11% RH,0.31%
same,Bulk (XRPD),[3]; 2 weeks 80° C./75% RH,No change
same,CL color,[3]; 2 weeks 80° C./75% RH,A
same,"DP[%] degradation products, Bulk (HPLC)",[3]; 2 weeks 80° C./75% RH,2.11%
same,XRPD,[4]; After 1 day at 80% RH,No change
same,Loss on drying by TGA,"[4]; After 1 day at 80% RH, @200° C.",1.08%@200 °C
same,XRPD,[4]; After 1 day at 92% RH,No change
same,Loss on drying by TGA,[4]; [17],1.18%@200 °C
same,Loss on drying by TGA,[4]; [18],0.92%@200 °C
same,CL color,[5]; [19],A
same,DP[%] degradation products,[5]; [19],0.44%
same,CL color,[5]; [20],A
same,DP[%] degradation products,[5]; [20],0.42%
same,CL color,[5]; [21],A
same,DP[%] degradation products,[5]; [21],0.22%
same,CL color,[5]; [22],A
same,DP[%] degradation products,[5]; [22],0.33%
"CNC[C@]1(c2ccccc2)Oc2cc(F)c(Cl)c(-c3c(C(N)=O)ccc(OC)c3F)c2[C@@H]1C [Compound B L-malate salt, 2-((2S,3S,4S)-5-Chloro-6-fluoro-3-methyl-2-((methylamino)methyl)-2-phenyl-2,3-dihydrobenzofuran-4-yl)-3-fluoro-4-methoxybenzamide]","DP[%] degradation products, Bulk amber vial (HPLC)",[1]; amber vial,0.16%
same,"DP[%] degradation products, Bulk clear quartz vial (HPLC)",[1]; clear quartz vial,1.53%
same,final pH,[2]; Blank FaSSIF,[6.04]
same,final pH,[2]; FaSSIF V2 pH 6.5,[5.95]
same,final pH,[2]; FeSSIF V2 pH 5.8,[5.74]
same,final pH,[2]; SGF pH 2.0,[2.17]
same,final pH,[2]; Water,[4.34]
same,final pH,"[2]; pH 3.0, 50 mM citrate buffer",[3.04]
same,final pH,"[2]; pH 4.7, 50 mM acetate buffer",[4.62]
same,final pH,"[2]; pH 6.8, 50 mM phosphate buffer",[6.59]
same,"DP[%] degradation products, Bulk (HPLC)",[3]; 2 weeks 80° C./11% RH,0.46%
same,"DP[%] degradation products, Bulk (HPLC)",[3]; 2 weeks 80° C./75% RH,2.84%
same,Loss on drying by TGA,[4]; [17],0.83%@200 °C
same,Loss on drying by TGA,[4]; [18],0.81%@200 °C
same,DP[%] degradation products,[5]; [19],1.32%
same,DP[%] degradation products,[5]; [20],2.65%
same,DP[%] degradation products,[5]; [21],0.24%
same,DP[%] degradation products,[5]; [22],0.36%
"CNC[C@]1(c2ccccc2)Oc2cc(F)c(Cl)c(-c3c(C(N)=O)ccc(OC)c3F)c2[C@@H]1C [Compound B Succinate salt, 2-((2S,3S,4S)-5-Chloro-6-fluoro-3-methyl-2-((methylamino)methyl)-2-phenyl-2,3-dihydrobenzofuran-4-yl)-3-fluoro-4-methoxybenzamide]",Bulk amber vial (XRPD),[1]; amber vial,No change
same,CL color,[1]; amber vial,A
same,"DP[%] degradation products, Bulk amber vial (HPLC)",[1]; amber vial,0.13%
same,Bulk clear quartz vial (XRPD),[1]; clear quartz vial,No change
same,CL color,[1]; clear quartz vial,B
same,"DP[%] degradation products, Bulk clear quartz vial (HPLC)",[1]; clear quartz vial,2.38%
same,final pH,[2]; Blank FaSSIF,[6.06]
same,Sol. (solubility),[2]; [6],>2 mg/mL
same,final pH,[2]; FaSSIF V2 pH 6.5,[6.06]
same,Sol. (solubility),[2]; [7],>2 mg/mL
same,final pH,[2]; FeSSIF V2 pH 5.8,[5.72]
same,Sol. (solubility),[2]; [8],>2 mg/mL
same,final pH,[2]; SGF pH 2.0,[2.20]
same,Sol. (solubility),[2]; [9],>2 mg/mL
same,final pH,[2]; Water,[4.97]
same,Sol. (solubility),[2]; [10],>2 mg/mL
same,final pH,"[2]; pH 1.2, 100 mM HCl",[1.17]
same,Sol. (solubility),[2]; [11],>2 mg/mL
same,final pH,"[2]; pH 3.0, 50 mM citrate buffer",[3.09]
same,Sol. (solubility),[2]; [12],>2 mg/mL
same,final pH,"[2]; pH 4.7, 50 mM acetate buffer",[4.70]
same,Sol. (solubility),[2]; [13],>2 mg/mL
same,final pH,"[2]; pH 6.8, 50 mM phosphate buffer",[6.64]
same,final pH,[2]; [14],[6.43]
same,Sol. (solubility),[2]; [15],>2 mg/mL
same,Sol. (solubility),[2]; [16],>2 mg/mL
same,Bulk (XRPD),[3]; 2 weeks 50° C./75% RH,No change
same,CL color,[3]; 2 weeks 50° C./75% RH,A
same,"DP[%] degradation products, Bulk (HPLC)",[3]; 2 weeks 50° C./75% RH,0.09%
same,Bulk (XRPD),[3]; 2 weeks 80° C./11% RH,No change
same,CL color,[3]; 2 weeks 80° C./11% RH,A
same,"DP[%] degradation products, Bulk (HPLC)",[3]; 2 weeks 80° C./11% RH,0.08%
same,Bulk (XRPD),[3]; 2 weeks 80° C./75% RH,No change
same,CL color,[3]; 2 weeks 80° C./75% RH,A
same,"DP[%] degradation products, Bulk (HPLC)",[3]; 2 weeks 80° C./75% RH,0.17%
same,Loss on drying by TGA,[4]; [17],0.67%@205 °C
same,Loss on drying by TGA,[4]; [18],0.56%@205 °C
same,CL color,[5]; [19],A
same,DP[%] degradation products,[5]; [19],0.25%
same,CL color,[5]; [20],A
same,DP[%] degradation products,[5]; [20],0.99%
same,CL color,[5]; [21],A
same,DP[%] degradation products,[5]; [21],0.15%
same,CL color,[5]; [22],A
same,DP[%] degradation products,[5]; [22],0.17%
